Experimental data reported in patent US20230203043A1, “NOVEL IMIDAZOPYRAZINE DERIVATIVES” (Hoffmann-La Roche Inc., priority 2020, published 2023).
Structures can show the parent of a compound that is named as a salt. Where two headings read alike, the source gives them in different places.

System: Acinetobacter baumannii ATCC17961
Test: Antimicrobial susceptibility testing: 90% growth inhibitory concentration (IC90) determination in Iso-Sensitest broth, OD600 growth
Type: cell-based
In short: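 Twofold compound dilutions (e.g. 50 to 0.097 μM final) in Iso-Sensitest broth with ~5×10^(5) CFU/ml, 35±2 °C. OD600 read every 20 min over 16 h; IC90 from growth inhibition during logarithmic phase.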

[1] = Acinetobacter baumannii, ATCC17961, 16 h, strain ATCC 17961, OD600 growth over 16 h, read-out: A. baumannii ATCC 17961 IC90
[2] = strain ATCC 17961, OD600 growth over 16 h, read-out: A. baumannii ATCC 17961 IC90
[3] = Acinetobacter baumannii, ATCC17961, 16 h, read-out: A. baumannii ATCC 17961 IC90 (uM), strain ATCC 17961, OD600 growth over 16 h

Row | Compound | IC90 [1] | IC90 [3] | other results
1 | C=CCn1cc(-c2cnc3c(Nc4cc(C)c(C(=O)N5CCN(C(=O)[C@H]6CC[C@H](O)N6)CC5)c(F)c4)nccn23)c(C(F)(F)F)n1 [Example 629, (4-(4-((3-(1-allyl-3-(trifluoromethyl)-1H-pyrazol-4-yl)imidazo[1,2-a]pyrazin-8-yl)amino)-2-fluoro-6-methylbenzoyl)piperazin-1-yl)((2R,5S)-5-hydroxypyrrolidin-2-yl)methanone] | 0.198 µM | – | –
2 | C#CCn1cc(-c2cnc3c(Nc4ccc(C(=O)N5CCC(CN)CC5)c(CC)c4)nccn23)c(C(F)(F)F)n1 [Example 46, [4-(aminomethyl)piperidin-1-yl]-[2-ethyl-4-[[3-[1-prop-2-ynyl-3-(trifluoromethyl)pyrazol-4-yl]imidazo[1,2-a]pyrazin-8-yl]amino]phenyl] methanone] | 0.093 µM | – | –
3 | (3-aminoazetidin- 1-yl)-[2-chloro-4- [[3-[1-(2,2- difluoroethyl)-3- pyrazol-4- yl]imidazo[1,2- a]pyrazin-8- yl]amino]phenyl] methanone [Example 101] | – | – | IC90 [2]: 0.138 µM
4 | N#CCCn1cc(-c2cnc3c(Nc4ccc(C(=O)N5CCN(C(=O)NC6CNC6)CC5)c(Cl)c4)nccn23)c(C(F)(F)F)n1 [Example 246, N-(azetidin-3-yl)-4-[2-chloro-4-[[3-[1-(2-cyanoethyl)-3-(trifluoromethyl)pyrazol-4-yl]imidazo[1,2-a]pyrazin-8-yl]amino]benzoyl] piperazine-1-carboxamide formate] | – | – | IC90 [2]: 0.533 µM
5 | CCc1cc(Nc2nccn3c(-c4cn(C(C)C#N)nc4C(F)(F)F)cnc23)ccc1C(=O)NCCOCCN1CCCC1 (stereo not drawn) [Example 645, 4-((3-(1-(1-cyanoethyl)-3-(trifluoromethyl)-1H-pyrazol-4-yl)imidazo[1,2-a]pyrazin-8-yl)amino)-2-ethyl-N-(2-(2-(pyrrolidin-1-yl)ethoxy)ethyl)benzamide formate] | – | 0.242 µM | –
6 | NCC(=O)N1CCN(C(=O)c2ccc(Nc3nccn4c(-c5cn(C(F)F)nc5C(F)(F)F)cnc34)cc2Cl)CC1 [Example 78, 2-amino-1-[4-[2-chloro-4-[[3-[1-(difluoromethyl)-3-(trifluoromethyl)pyrazol-4-yl]imidazo[1,2-a]pyrazin-8-yl]amino]benzoyl]piperazin-1-yl]ethanone] | 0.161 µM | – | –
7 | CCc1cc(Nc2nccn3c(-c4cn(CC(F)F)nc4C(F)(F)F)cnc23)ccc1C(=O)NCC(=O)N1CCC(CN)C1 (stereo not drawn) [Example 527, N-[2-[3-(aminomethyl)pyrrolidin-1-yl]-2-oxo-ethyl]-4-[[3-[1-(2,2-difluoroethyl)-3-(trifluoromethyl)pyrazol-4-yl]imidazo[1,2-a]pyrazin-8-yl]amino]-2-ethyl-benzamide formate] | – | 0.306 µM | –
8 | CCc1cc(Nc2nccn3c(-c4cn(C5CCC5)nc4C(F)(F)F)cnc23)ccc1C(=O)NCCOCCN1CCCC1 [Example 619, 4-((3-(1-cyclobutyl-3-(trifluoromethyl)-1H-pyrazol-4-yl)imidazo[1,2-a]pyrazin-8-yl)amino)-2-ethyl-N-(2-(2-(pyrrolidin-1-yl)ethoxy)ethyl)benzamide formate] | – | 0.131 µM | –
9 | N[C@H]1CC[C@H](C(=O)N2CCN(C(=O)c3ccc(Nc4nccn5c(-c6cn(CC(F)F)nc6C(F)(F)F)cnc45)cc3Cl)CC2)C1 [Example 583, (4-((1S,3S)-3-aminocyclopentane-1-carbonyl)piperazin-1-yl) (2-chloro-4-((3-(1-(2,2-difluoroethyl)-3-(trifluoromethyl)-1H-pyrazol-4-yl)imidazo[1,2-a]pyrazin-8-yl)amino)phenyl) methanone formate] | – | 0.347 µM | –
10 | CCc1cc(Nc2nccn3c(-c4cn(CC(F)F)nc4C(F)(F)F)cnc23)ccc1C(=O)NCCCCCN(CC(=O)O)CC1CNC1 [Example 829, 2-[azetidin-3-ylmethyl-[S-[[4-[[3-[1-(2,2-difluoroethyl)-3-(trifluoromethyl)pyrazol-4-yl]imidazo[1,2-α]pyrazin-8-yl]amino]-2-ethyl-benzoyl]amino]pentyl]amino]acetic acid; formic acid] | 0.72 µM | – | –
11 | CCc1cc(Nc2nccn3c(-c4c[nH]nc4C(F)(F)F)cnc23)ccc1C(=O)NCCNC(=O)N1CC[C@@H](N)C1 [Example 517, (R)-3-amino-N-(2-(2-ethyl-4-((3-(3-(trifluoromethyl)-1H-pyrazol-4-yl)imidazo[1,2-a]pyrazin-8-yl)amino)benzamido)ethyl) pyrrolidine-1-carboxamide formate] | 0.369 µM | – | –
12 | NCCNC(=O)CNC(=O)c1ccc(Nc2nccn3c(-c4cn(CC(F)F)nc4C(F)(F)F)cnc23)cc1Cl [Example 117, N-[2-(2-aminoethylamino)-2-oxoethyl]-2-chloro-4-[[3-[1-(2,2-difluoroethyl)-3-(trifluoromethyl)pyrazol-4-yl]imidazo[1,2-a]pyrazin-8-yl]amino]benzamide formate] | – | 0.338 µM | –
13 | Cc1cc(Nc2nccn3c(-c4cn(CC#N)nc4C(F)(F)F)cnc23)ccc1C(=O)N1CCN(C(=O)[C@H]2CCNC[C@@H]2O)CC1 [Example 382, formic acid; 2-[4-[8-[4-[4-[(3R,4S)-3-hydroxypiperidine-4-carbonyl]piperazine-1-carbonyl]-3-methylanilino]imidazo[1,2-a]pyrazin-3-yl]-3-(trifluoromethyl)pyrazol-1-yl]acetonitrile] | – | 0.749 µM | –
14 | CCc1cc(Nc2nccn3c(-c4cn(CC(F)F)nc4C(F)(F)F)cnc23)ccc1C(=O)NCCNC(=O)[C@H](C)N [Example 616, (S)-N-(2-(2-aminopropanamido)ethyl)-4-((3-(1-(2,2-difluoroethyl)-3-(trifluoromethyl)-1H-pyrazol-4-yl)imidazo[1,2-a]pyrazin-8-yl)amino)-2-ethylbenzamide formate] | – | 0.153 µM | –
15 | O=C(NC1CCN(C(=O)c2ccc(Nc3nccn4c(-c5c[nH]nc5C(F)(F)F)cnc34)cc2Cl)CC1)N[C@H]1CCNC1 [Example 144, 1-[1-[2-choro-4-[[3-[3-(trifluoromethyl)-1H-pyrazol-4-yl]imidazo[1,2-a]pyrazin-8-yl]amino]benzoyl]piperidin-4-yl]-3-[(3S)-pyrrolidin-3-yl]urea] | – | – | IC90 [2]: 0.335 µM
16 | Cc1cc(Nc2nccn3c(-c4cn(CC(F)F)nc4C(F)(F)F)cnc23)cc(F)c1C(=O)N[C@H](C)CN [Example 704, (R)-N-(1-aminopropan-2-yl)-4-((3-(1-(2,2-difluoroethyl)-3-(trifluoromethyl)-1H-pyrazol-4-yl)imidazo[1,2-a]pyrazin-8-yl)amino)-2-fluoro-6-methylbenzamide] | 0.386 µM | – | –
17 | CCc1cc(Nc2nccn3c(-c4cn(CC(F)F)nc4C(F)(F)F)cnc23)ccc1C(=O)NCC(=O)NCC1CCNCC1 [Example 550, 4-[[3-[1-(2,2-difluoroethyl)-3-(trifluoromethyl)pyrazol-4-yl]imidazo[1,2-a]pyrazin-8-yl]amino]-2-ethyl-N-[2-oxo-2-(4-piperidylmethylamino)ethyl] benzamide formate] | 0.261 µM | – | –
18 | O=C(NC1CCC(NC(=O)[C@@H]2C[C@@H](O)CN2)CC1)c1ccc(Nc2nccn3c(-c4c[nH]nc4C(F)(F)F)cnc23)cc1Cl (stereo partly drawn) [Example 374, (2S,4R)-N-[4-[[2-chloro-4-[[3-[3-(trifluoromethyl)-1H-pyrazol-4-yl]imidazo[1,2-a]pyrazin-8-yl]amino]benzoyl]amino]cyclohexyl]-4-hydroxypyrrolidine-2-carboxamide] | 0.237 µM | – | –
